Experimental data published in PMC4734850, “Tyrosinase inhibitory activity of flavonoids from Artocarpus heterophyllous” (Chemistry Central Journal, 2016).
Like-named read-outs stand apart in the source and are kept apart here.

Assays:
[1] = biological target: T1, Tyrosinase (EC 1.14.18.1) from mushroom (Agaricus bisporus, UniProt C7FF04); assay: Tyrosinase inhibitory assay (L-DOPA oxidation, absorbance at 475 nm); type: biochemical
T1 construct: purchased Sigma Chemical Co. (St. Louis, MO, USA)
T1 sequence (C7FF04 1-392 limits assumed): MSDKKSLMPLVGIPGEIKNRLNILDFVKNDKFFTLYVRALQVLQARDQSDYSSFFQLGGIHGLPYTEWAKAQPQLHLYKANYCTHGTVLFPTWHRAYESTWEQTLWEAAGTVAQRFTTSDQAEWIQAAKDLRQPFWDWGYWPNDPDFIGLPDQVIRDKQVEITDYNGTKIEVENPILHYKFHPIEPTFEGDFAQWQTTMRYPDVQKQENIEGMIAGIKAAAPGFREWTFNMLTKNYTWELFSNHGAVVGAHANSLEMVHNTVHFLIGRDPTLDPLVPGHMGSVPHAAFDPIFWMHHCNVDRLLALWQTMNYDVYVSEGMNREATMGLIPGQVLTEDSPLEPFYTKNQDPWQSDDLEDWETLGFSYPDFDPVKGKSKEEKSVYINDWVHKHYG
Protocol: Tyrosinase (EC 1.14.18.1) from mushroom (3933 U/mL) and L-dihydroxyphenylalanine (L-DOPA) were obtained from Sigma Chemical Co. (St. Louis, MO, USA). […] Other chemicals were of the highest grade available.
All the samples were first dissolved in DMSO and used for the actual experiment at concentrations of […] (or µM for pure compounds). The tyrosinase inhibitory activity assay was performed as previously described by Arung et al.. The assay mixtures consisting of 1900 µL of test solution in 0.1 M phosphate buffer pH 6.8 and 100 µL of enzyme solution (15 U/mL in 0.1 M phosphate buffer pH 6.8) was prepared immediately before use. After preincubation at room temperature for 30 min, the reaction was initiated by the addition of 1000 µL of substrate solution (1.5 mM L-DOPA in 0.1 M phosphate buffer pH 6.8). The assay mixture was incubated at room temperature for 7 min, and the absorbance at 475 nm was measured with a Shimadzu UV-1800 spectrophotometer. […] Tyrosinase inhibitory activity was expressed as the percentage inhibitory of enzyme tyrosinase in the above assay system, calculated as (1 − B/A) × 100, where A and B are the activities of the enzyme without and with test material. IC50 values were calculated from the mean values of data from four determinations.

mushroom tyrosinase = biological target: T2, mushroom tyrosinase (Agaricus bisporus, UniProt C7FF04); assay: Inhibition mechanism, Lineweaver–Burk plots; type: biochemical; conditions: 30 °C, pH 6.8
T2 construct: purchased Sigma Chemical Co. (St. Louis, MO, USA)
T2 sequence (C7FF04 1-392 limits assumed): as above
Protocol: Fig. 3 Lineweaver–Burk plots for type of inhibition of mushroom tyrosinase (10 U/mL) by artocaepin E (1) for the catalysis of L-DOPA (0.2, 0.3, 0.4, 0.5, and 0.6 mM) at 30 °C, pH 6.8. Concentration of these compounds for curves I0.0, I5.0, I7.0, and I10.0 were 0.0, 5.0, 7.0, and 10.0 μM, respectively. The inset represents the plot of these compounds for determining the inhibition constant (Ki). The line is drawn using a linear lest squares fit
The dependence of absorbance (475 nm) on time was measured, and the reaction rate was calculated for all reactions (uninhibited and inhibited). Then, a Lineweaver–Burk plot was constructed, and Km and Vm values were calculated. Each measurement was performed in duplicate.

[2] = mushroom tyrosinase, substrate L-DOPA, 0.1 M phosphate buffer pH 6.8, room temperature, read-out: Tyrosinase inhibitory activity IC50

Q: How did the IC50 [1, 2] turn out when `COc1cc(O)c2c(c1)O[C@H](c1ccc(O)cc1O)CC2=O` [Compound 4, artocarpanone] was run?
A: 2 ± 0.1 µM

Q: For `O=c1cc(-c2ccc(O)cc2O)oc2cc(O)cc(O)c12` [Compound 3, norartocarpetin], which IC50 [1, 2] is on record?
A: > 50 µM

Q: `C/C(=C\Cc1c(O)ccc2c1O[C@H](c1ccc(O)cc1)CC2=O)CO` [Compound 2, artocaepin F] was tested. Which IC50 [1, 2] did it give?
A: > 50 µM

Q: `O=C1CC(c2ccc(O)cc2O)Oc2cc(O)cc(O)c21` (stereo not shown) [Compound 6, steppogenin] was tested. Which IC50 [1, 2] did it give?
A: 7.5 ± 0.5 µM

Q: What about the “inhibitory activity relative to 4” value ([1]; ratio of tyrosinase IC50 values, 6 vs 4) of the same compound?
A: 3.75 fold

Q: How did the IC50 [1, 2] turn out when `C/C(=C\Cc1c(O)cc2oc(-c3ccc(O)cc3O)cc(=O)c2c1O)COC(=O)/C=C/c1ccc(O)cc1` [Compound 1, artocaepin E] was run?
A: 6.7 ± 0.8 µM

Q: What about the type of inhibition (mushroom tyrosinase; Lineweaver–Burk plots, L-DOPA substrate) of the same compound?
A: competitive inhibition

Q: And the Ki (mushroom tyrosinase; mushroom tyrosinase 10 U/mL, L-DOPA 0.2-0.6 mM, read-out: inhibition constant (Ki))?
A: 6.23 µM

Q: How did the IC50 [1, 2] turn out when `O=C1c2c(O)cc(O)cc2O[C@H](c2ccc(O)cc2O)[C@H]1O` [Compound 7, dihydromorin] was run?
A: > 50 µM

Q: `O=C1C[C@@H](c2ccc(O)cc2)Oc2cc(O)ccc21` [Compound 5, liquiritigenin] was tested. Which IC50 [1] did it give?
A: 22 ± 2.5 µM
